Experimental data from patent US8101782B2, “Compounds that inhibit cholinesterase” (priority 2007, dated 2012).
Like-named read-outs stand apart in the source and are kept apart here.

Legend:
[1] = tested on: male CD IGS (Sprague Dawley derived) rats; assay: Measurement of hypothermia (rectal temperature); assay type: in vivo; conditions: Rattus norvegicus, sc, read-out: Hypothermia MED
Experimental: The induction of hypothermia was determined for compounds of the invention according to the methods described in Freedman, et al., European Journal of Pharmacology, 187 (1990), 193-199, which is incorporated by reference herein. Dose range and time course for cholinergic effects of the compounds of the invention was also determined. […]
(§1) The dose range and time course for cholinergic effects of the compounds of the invention was determined as described below.
(§2) Subjects: Two hundred eight male CD IGS (Sprague Dawley derived) rats were received at 126-150 grams and maintained four per cage on a regular light/dark cycle (lights on 0600-1800) with ad libitum food and water for about 1 week before commencement of experimentation. Apparatus: Injection was done with a 25-gauge ⅝-inch needle on a 1-mL tuberculin syringe. Observation was done in a 5½-×10-inch polycarbonate rat housing cage. Temperature was taken with a rat rectal probe on a Model BAT-12 electronic thermometer. Compound Preparation: Test compounds were dissolved for example, in 0.9% saline. Concentrations for lower doses were prepared by taking aliquots from higher concentrations and diluting. Injection volumes were 1 mL/kg, if the test compound was sufficiently soluble. If less soluble, maximum injection volume were 5 mL/kg. Route of administration was s.c. As sample protocol is as follows: Treatment Groups included (N=3, with 6 for Saline)
(§3) Procedure: The rats were brought to the test room in the home cage. Baseline temperature were be taken just before injection. After injection s.c., the rat was placed in the observation cage. At 0.5, 1, 2, and 4 hours after injection, it was observed briefly for gross signs; salivation was scored as absent, clearly present, or copious; and rectal temperature was taken. In observation for gross signs, special attention was paid to fasciculation (muscle twitch), tremor/ataxia, and abnormal gait.

BuChE = BuChE (Homo sapiens, UniProt P06276); assay: In vitro screening assay, BuChE inhibition; assay type: biochemical; conditions: for BuChEI (%) 1 μM: 1 μM compound; for BuChEI (%) 10 μM: 10 μM compound
Chain of BuChE (P06276 29-602): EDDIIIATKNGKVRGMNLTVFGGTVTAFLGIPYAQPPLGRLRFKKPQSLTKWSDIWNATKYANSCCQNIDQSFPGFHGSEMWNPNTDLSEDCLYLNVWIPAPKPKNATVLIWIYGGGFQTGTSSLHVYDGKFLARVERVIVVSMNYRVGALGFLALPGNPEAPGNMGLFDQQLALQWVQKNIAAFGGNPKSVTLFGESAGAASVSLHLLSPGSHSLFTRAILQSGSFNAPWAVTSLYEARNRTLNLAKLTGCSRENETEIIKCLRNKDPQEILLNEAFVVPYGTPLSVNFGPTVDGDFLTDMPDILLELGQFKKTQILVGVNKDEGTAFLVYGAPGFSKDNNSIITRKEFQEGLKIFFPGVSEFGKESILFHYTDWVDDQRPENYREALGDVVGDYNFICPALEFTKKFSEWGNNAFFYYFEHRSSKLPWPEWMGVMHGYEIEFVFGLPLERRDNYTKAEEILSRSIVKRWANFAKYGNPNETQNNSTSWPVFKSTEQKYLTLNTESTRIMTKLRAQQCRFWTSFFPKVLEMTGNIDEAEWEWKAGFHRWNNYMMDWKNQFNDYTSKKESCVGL
Source text: (§4) An in vitro screening assay with compounds of the invention was completed according to the methods described in Ellman G L et al., Biochem Pharmacol., 7:88-95 (1961) and in Nadarajah B, J. Anal. Toxicol., 16:192-193 (1992), both of which are herein incorporated by reference in their entireties.
as §4, with “entireties. The assay method was completed according to the following: […]” for “entireties.”

[2] = tested on: male CD IGS (Sprague Dawley derived) rats; assay: Determination of the dose range and time course for cholinergic effects (gross signs, salivation); conditions: s.c., doses 1, 3, 10, 30 and 100 mg/kg; observed up to 4 hours
Experimental: The induction of hypothermia was determined for compounds of the invention according to the methods described in Freedman, et al., European Journal of Pharmacology, 187 (1990), 193-199, which is incorporated by reference herein. Dose range and time course for cholinergic effects of the compounds of the invention was also determined.
as §1, §2, §3

[3] = biological target: T1, human recombinant acetylcholinesterase (Homo sapiens, UniProt P22303); assay: Inhibition of acetylcholinesterase in vitro (modified Ellman colorimetric method, Dixon plot); assay type: biochemical; conditions: human recombinant AChE, 25° C., 30 minutes preincubation, 0.3 mM acetylthiocholine, pH 8
T1 construct: purchased Sigma Chemical Co (St. Louis, Mo.) C1682
T1 sequence (P22303 32-614): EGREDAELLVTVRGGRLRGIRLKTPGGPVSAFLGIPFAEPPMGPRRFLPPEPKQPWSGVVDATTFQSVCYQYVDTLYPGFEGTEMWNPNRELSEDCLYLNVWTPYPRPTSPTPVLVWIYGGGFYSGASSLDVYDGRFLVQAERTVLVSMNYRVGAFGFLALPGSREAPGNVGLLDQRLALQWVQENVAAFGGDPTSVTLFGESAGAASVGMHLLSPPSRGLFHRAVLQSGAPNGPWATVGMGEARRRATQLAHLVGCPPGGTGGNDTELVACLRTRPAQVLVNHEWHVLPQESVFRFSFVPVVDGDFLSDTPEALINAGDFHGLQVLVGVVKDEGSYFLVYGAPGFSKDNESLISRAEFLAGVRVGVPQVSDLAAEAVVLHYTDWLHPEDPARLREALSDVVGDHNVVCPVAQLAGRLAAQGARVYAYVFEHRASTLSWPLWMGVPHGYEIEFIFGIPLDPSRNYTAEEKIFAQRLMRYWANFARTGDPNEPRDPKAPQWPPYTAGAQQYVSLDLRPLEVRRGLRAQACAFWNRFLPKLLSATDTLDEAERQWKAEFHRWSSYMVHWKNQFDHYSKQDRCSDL

AChE = AChE (Homo sapiens, UniProt P22303); assay: In vitro screening assay, AChE inhibition (spectrophotometric quantitation of thiocholine); assay type: biochemical; conditions: 700 μM acetylthiocholine, pH 7.4, 25° C.; for AChEI (%) 1 μM: 1 μM compound; for AChEI (%) 10 μM: 10 μM compound
Chain of AChE (P22303 32-614): as above

[4] = minimum effective dose for hypothermia, s.c., temperature at 0.5, 1, 2 and 4 hours after injection

## CCN(C)C(=O)Oc1cccc([C@H](C)N(C)C)c1 [Compound 1, S-rivastigmine, reference compound]
[1]; [4]
  minimal effective dose: ≤ 0.1 mg/kg

## C[C@@H](c1cccc(OC(=O)N[C@@H]2C[C@H]2c2ccccc2)c1)N(C)C [Compound 2, S-rivastigmine-tranylcypromine]
BuChE
  BuChEI (%) 1 μM: 23%
  BuChEI (%) 10 μM: 67%
[1]; [4]
  minimal effective dose: 10 mg/kg
[2]
  Max Tolerated Dose: 30
[3]
  IC50: 0.2 µM
AChE
  AChEI (%) 1 μM: 84%
  AChEI (%) 10 μM: 97%

## C[C@@H](c1cccc(OC(=O)N2CCN(C3=Nc4ccccc4Oc4ccc(Cl)cc43)CC2)c1)N(C)C [Compound 3, S-rivastigmine-amoxapine]
[1]; [4]
  minimal effective dose: 10 mg/kg

## C[C@@H](c1cccc(OC(=O)N(C)CCCN2c3ccccc3CCc3ccccc32)c1)N(C)C [Compound 4, S-rivastigmine-desipramine]
[1]; [4]
  minimal effective dose: 3 mg/kg

## C[C@@H](c1cccc(OC(=O)N(C)CCC=C2c3ccccc3CCc3ccccc32)c1)N(C)C [Compound 5, S-rivastigmine-nortriptyline]
[1]; [4]
  minimal effective dose: ≤ 1 mg/kg
[2]
  Max Tolerated Dose: ≧100

## C[C@@H](c1cccc(OC(=O)N(C)CCCC2c3ccccc3C=Cc3ccccc32)c1)N(C)C [Compound 6, S-rivastigmine-protriptyline]
[1]; [4]
  minimal effective dose: 100 mg/kg

## C[C@@H](c1cccc(OC(=O)N(C)CCC(Oc2ccc(C(F)(F)F)cc2)c2ccccc2)c1)N(C)C (stereo partly shown) [Compound 7, S-rivastigmine-fluoxetine]
[1]; [4]
  minimal effective dose: 3 mg/kg

## C[C@@H](c1cccc(OC(=O)N(C)CCc2ccccn2)c1)N(C)C [Compound 11, S-rivastigmine-betahistine]
BuChE
  BuChEI (%) 1 μM: 45%
  BuChEI (%) 10 μM: 100%
[1]
  minimal effective dose: < 1 mg/kg
[2]
  Max Tolerated Dose: 30
[3]
  IC50: 13.3 µM
AChE
  AChEI (%) 10 μM: 47%

## CCOC(=O)C1=C(COCCNC(=O)Oc2cccc([C@H](C)N(C)C)c2)NC(C)=C(C(=O)OC)C1c1ccccc1Cl (stereo partly shown) [Compound 12, S-rivastigmine-amlodipine]
BuChE
  BuChEI (%) 10 μM: 6%
[3]
  IC50: 3.7 µM
AChE
  AChEI (%) 1 μM: 20%
  AChEI (%) 10 μM: 79%

## CC(CC1CCCCC1)N(C)C(=O)Oc1cccc([C@H](C)N(C)C)c1 (stereo partly shown) [Compound 13, S-rivastigmine-propylhexedrine]
BuChE
  BuChEI (%) 1 μM: 37%
  BuChEI (%) 10 μM: 100%
[1]; [4]
  minimal effective dose: 10 mg/kg
AChE
  AChEI (%) 1 μM: 62%
  AChEI (%) 10 μM: 99%

## CC(NC(=O)Oc1cccc([C@H](C)N(C)C)c1)C12CC3CC(CC(C3)C1)C2 (stereo partly shown) [Compound 14, S-rivastigmine-rimantadine]
BuChE
  BuChEI (%) 10 μM: 13%
[3]
  IC50: 4.5 µM
AChE
  AChEI (%) 1 μM: 28%
  AChEI (%) 10 μM: 77%

## C[C@@H](c1cccc(OC(=O)N2CCC(=C3c4ccc(Cl)cc4CCc4cccnc43)CC2)c1)N(C)C [Compound 15, S-rivastigmine-desloratidine]
BuChE
  BuChEI (%) 10 μM: 6%
[1]
  minimal effective dose: 3 mg/kg
[2]
  Max Tolerated Dose: ≧100
[3]
  IC50: 12.5 µM
AChE
  AChEI (%) 10 μM: 36%

## C[C@@H](c1cccc(OC(=O)NC23CC4CC(CC(C4)C2)C3)c1)N(C)C [Compound 16, S-riva- amantadine]
[3]
  IC50: 72.1 µM

## C[C@@H](c1cccc(OC(=O)N[C@@]23CC4C[C@@](C)(C[C@@](C)(C4)C2)C3)c1)N(C)C [Compound 17, S-riva memantine]
[3]
  IC50: 5.8 µM

## CC(C)C[C@@H](CNC(=O)Oc1cccc([C@H](C)N(C)C)c1)CC(=O)O [Compound 18, S-riva pregabalin]
[3]
  IC50: 24.9 µM

## C[C@@H](c1cccc(OC(=O)NCC(CC(=O)O)c2ccc(Cl)cc2)c1)N(C)C (stereo partly shown) [Compound 19, S-riva baclofen]
[3]
  IC50: 16.9 µM

## C[C@@H](c1cccc(OC(=O)N2CCN(c3cc4c(cc3F)c(=O)c(C(=O)O)cn4C3CC3)CC2)c1)N(C)C [Compound 20, S-riva ciprofloxacin]
[3]
  IC50: 53.6 µM
